Experimental data: the NIST ThermoML archive (doi:10.1016/j.jct.2007.07.005)

Experiment: xn = mol fraction of the nth substance listed
Settings: Fluid (supercritical or subcritical phases), vibrating tube

CCCCCO [pentan-1-ol] + O=C=O
Settings | mass density [kg/m3]
323.11 K, 21027 kPa, x2 = 0.1347 | 813.66
323.11 K, 21051 kPa, x2 = 0.6054 | 847.84
323.11 K, 22019 kPa, x2 = 0.6054 | 849.47
323.11 K, 22027 kPa, x2 = 0.1347 | 814.42
323.11 K, 23017 kPa, x2 = 0.1347 | 815.16
323.11 K, 23023 kPa, x2 = 0.6054 | 851.13
323.11 K, 24022 kPa, x2 = 0.1347 | 815.93
323.11 K, 24036 kPa, x2 = 0.6054 | 852.76
323.11 K, 24999 kPa, x2 = 0.1347 | 816.68
323.11 K, 25069 kPa, x2 = 0.6054 | 854.41
332.79 K, 493 kPa, x2 = 0 | 784.29
332.79 K, 1014 kPa, x2 = 0 | 784.76
332.79 K, 2006 kPa, x2 = 0 | 785.61
332.79 K, 3025 kPa, x2 = 0 | 786.48
332.79 K, 4011 kPa, x2 = 0 | 787.28
332.79 K, 5020 kPa, x2 = 0 | 788.11
332.79 K, 6003 kPa, x2 = 0 | 788.91
332.79 K, 6997 kPa, x2 = 0 | 789.73
332.79 K, 8009 kPa, x2 = 0 | 790.54
332.79 K, 8995 kPa, x2 = 0 | 791.31
332.79 K, 9996 kPa, x2 = 0 | 792.12
332.79 K, 11018 kPa, x2 = 0 | 792.9
332.79 K, 11995 kPa, x2 = 0 | 793.66
332.79 K, 13023 kPa, x2 = 0 | 794.45
332.79 K, 13999 kPa, x2 = 0 | 795.19
332.79 K, 15010 kPa, x2 = 0 | 795.95
332.79 K, 16028 kPa, x2 = 0 | 796.68
332.79 K, 17003 kPa, x2 = 0 | 797.41
332.79 K, 18040 kPa, x2 = 0 | 798.14
332.79 K, 19004 kPa, x2 = 0 | 798.84
332.79 K, 20035 kPa, x2 = 0 | 799.59
332.79 K, 21024 kPa, x2 = 0 | 800.29
332.79 K, 21993 kPa, x2 = 0 | 800.97
332.79 K, 23039 kPa, x2 = 0 | 801.71
332.79 K, 24015 kPa, x2 = 0 | 802.4
332.79 K, 25022 kPa, x2 = 0 | 803.12
332.93 K, 8022 kPa, x2 = 0.3624 | 806.47
332.93 K, 9003 kPa, x2 = 0.3624 | 807.66
332.93 K, 9033 kPa, x2 = 0.4651 | 808.88
332.93 K, 10018 kPa, x2 = 0.3624 | 808.86
332.93 K, 10027 kPa, x2 = 0.4651 | 810.57
332.93 K, 10989 kPa, x2 = 0.3624 | 809.94
332.93 K, 11000 kPa, x2 = 0.4651 | 812.22
332.93 K, 12008 kPa, x2 = 0.3624 | 811.14
332.93 K, 12019 kPa, x2 = 0.4651 | 813.92
332.93 K, 12032 kPa, x2 = 0.8067 | 770.68
332.93 K, 12989 kPa, x2 = 0.9757 | 593.78
332.93 K, 12995 kPa, x2 = 0.8067 | 780.67
332.93 K, 13015 kPa, x2 = 0.3624 | 812.22
332.93 K, 13017 kPa, x2 = 0.4651 | 815.52
332.93 K, 13981 kPa, x2 = 0.3624 | 813.29
332.93 K, 13992 kPa, x2 = 0.9757 | 633.72
332.93 K, 14013 kPa, x2 = 0.8067 | 788.98
332.93 K, 14027 kPa, x2 = 0.4651 | 817.14
332.93 K, 15014 kPa, x2 = 0.9757 | 664.21
332.93 K, 15021 kPa, x2 = 0.3624 | 814.39
332.93 K, 15023 kPa, x2 = 0.4651 | 818.68
332.93 K, 15025 kPa, x2 = 0.8067 | 796.09
332.93 K, 15992 kPa, x2 = 0.3624 | 815.41
332.93 K, 16007 kPa, x2 = 0.4651 | 820.18
332.93 K, 16011 kPa, x2 = 0.9757 | 687.95
332.93 K, 16021 kPa, x2 = 0.8067 | 802.3
